From ChEMBL document CHEMBL3400135, “Design, synthesis and biological evaluation of novel homocamptothecin analogues as potent antitumor agents” (Bioorg Med Chem, 2015)

Key:
[1] = system: Mus musculus; assay: Toxicity in human HT-29 cells xenografted mouse assessed as body weight level at 15 mg/kg, iv dosed three times per week to the end of treatment measured on day 3 (reference value: 20.7 +/- 1.2 g); assay type: organism-based; design: dose 15 mg/kg, route intravenous; settings: in vivo
[2] = system: Mus musculus; assay: Toxicity in human HT-29 cells xenografted mouse assessed as body weight level at 15 mg/kg, iv dosed three times per week to the end of treatment measured on day 7 (reference value: 21.7 +/- 1 g); assay type: organism-based; design: dose 15 mg/kg, route intravenous; settings: in vivo
[3] = system: Mus musculus; assay: Toxicity in human HT-29 cells xenografted mouse assessed as body weight level at 15 mg/kg, iv dosed three times per week to the end of treatment measured on day 10 (reference value: 22.4 +/- 1.3 g); assay type: organism-based; design: dose 15 mg/kg, route intravenous; settings: in vivo
[4] = system: Mus musculus; assay: Toxicity in human HT-29 cells xenografted mouse assessed as body weight level at 15 mg/kg, iv dosed three times per week to the end of treatment measured on day 14 (reference value: 22.7 +/- 1.5 g); assay type: organism-based; design: dose 15 mg/kg, route intravenous; settings: in vivo
[5] = system: Mus musculus; assay: Toxicity in human HT-29 cells xenografted mouse assessed as body weight level at 15 mg/kg, iv dosed three times per week to the end of treatment measured on day 17 (reference value: 22 +/- 1.7 g); assay type: organism-based; design: dose 15 mg/kg, route intravenous; settings: in vivo
[6] = system: Mus musculus; assay: Toxicity in human HT-29 cells xenografted mouse assessed as body weight level at 15 mg/kg, iv dosed three times per week to the end of treatment measured on day 21 (reference value: 21.2 +/- 1.6 g); assay type: organism-based; design: dose 15 mg/kg, route intravenous; settings: in vivo
[7] = system: Mus musculus; assay: Toxicity in human HT-29 cells xenografted mouse assessed as lethal toxicity at 15 mg/kg, iv dosed three times per week to the end of treatment; assay type: organism-based; design: dose 15 mg/kg, route intravenous; settings: in vivo
[8] = system: HT-29; assay: Antitumor activity against human HT-29 cells xenografted in mouse assessed as relative tumor increment rate at 15 mg/kg, iv dosed three times per week to the end of treatment relative to untreated control; assay type: functional
[9] = system: HT-29; assay: Antitumor activity against human HT-29 cells xenografted in mouse assessed as tumor volume at 3 mg/kg, iv dosed three times per week to the end of treatment measured on day 10 (reference value: 386 +/- 77 mm3); assay type: functional
[10] = system: HT-29; assay: Antitumor activity against human HT-29 cells xenografted in mouse assessed as tumor volume at 3 mg/kg, iv dosed three times per week to the end of treatment measured on day 14 (reference value: 677 +/- 115 mm3); assay type: functional
[11] = system: HT-29; assay: Antitumor activity against human HT-29 cells xenografted in mouse assessed as tumor volume at 3 mg/kg, iv dosed three times per week to the end of treatment measured on day 17 (reference value: 807 +/- 197 mm3); assay type: functional
[12] = system: HT-29; assay: Antitumor activity against human HT-29 cells xenografted in mouse assessed as tumor volume at 3 mg/kg, iv dosed three times per week to the end of treatment measured on day 21 (reference value: 1272+/- 273 mm3); assay type: functional
[13] = system: HT-29; assay: Antitumor activity against human HT-29 cells xenografted in mouse assessed as tumor volume at 0.5 mg/kg, iv dosed three times per week to the end of treatment measured on day 3 (reference value: 168 +/- 46 mm3); assay type: functional
[14] = system: HT-29; assay: Antitumor activity against human HT-29 cells xenografted in mouse assessed as tumor volume at 0.5 mg/kg, iv dosed three times per week to the end of treatment measured on day 7 (reference value: 229 +/- 57 mm3); assay type: functional
[15] = system: HT-29; assay: Antitumor activity against human HT-29 cells xenografted in mouse assessed as tumor volume at 0.5 mg/kg, iv dosed three times per week to the end of treatment measured on day 10 (reference value: 386 +/- 77 mm3); assay type: functional
[16] = system: HT-29; assay: Antitumor activity against human HT-29 cells xenografted in mouse assessed as tumor volume at 0.5 mg/kg, iv dosed three times per week to the end of treatment measured on day 14 (reference value: 677 +/- 115 mm3); assay type: functional
[17] = system: HT-29; assay: Antitumor activity against human HT-29 cells xenografted in mouse assessed as tumor volume at 0.5 mg/kg, iv dosed three times per week to the end of treatment measured on day 17 (reference value: 807 +/- 197 mm3); assay type: functional
[18] = system: HT-29; assay: Antitumor activity against human HT-29 cells xenografted in mouse assessed as tumor volume at 0.5 mg/kg, iv dosed three times per week to the end of treatment measured on day 21 (reference value: 1272+/- 273 mm3); assay type: functional
[19] = system: Mus musculus; assay: Toxicity in human HT-29 cells xenografted mouse assessed as body weight level at 3 mg/kg, iv dosed three times per week to the end of treatment measured on day 3 (reference value: 20.7 +/- 1.2 g); assay type: organism-based; design: dose 3 mg/kg, route intravenous; settings: in vivo
[20] = system: Mus musculus; assay: Toxicity in human HT-29 cells xenografted mouse assessed as body weight level at 3 mg/kg, iv dosed three times per week to the end of treatment measured on day 7 (reference value: 21.7 +/- 1 g); assay type: organism-based; design: dose 3 mg/kg, route intravenous; settings: in vivo
[21] = system: Mus musculus; assay: Toxicity in human HT-29 cells xenografted mouse assessed as body weight level at 3 mg/kg, iv dosed three times per week to the end of treatment measured on day 10 (reference value: 22.4 +/- 1.3 g); assay type: organism-based; design: dose 3 mg/kg, route intravenous; settings: in vivo
[22] = system: Mus musculus; assay: Toxicity in human HT-29 cells xenografted mouse assessed as body weight level at 3 mg/kg, iv dosed three times per week to the end of treatment measured on day 14 (reference value: 22.7 +/- 1.5 g); assay type: organism-based; design: dose 3 mg/kg, route intravenous; settings: in vivo
[23] = system: Mus musculus; assay: Toxicity in human HT-29 cells xenografted mouse assessed as body weight level at 3 mg/kg, iv dosed three times per week to the end of treatment measured on day 17 (reference value: 22 +/- 1.7 g); assay type: organism-based; design: dose 3 mg/kg, route intravenous; settings: in vivo
[24] = system: Mus musculus; assay: Toxicity in human HT-29 cells xenografted mouse assessed as body weight level at 3 mg/kg, iv dosed three times per week to the end of treatment measured on day 21 (reference value: 21.2 +/- 1.6 g); assay type: organism-based; design: dose 3 mg/kg, route intravenous; settings: in vivo
[25] = system: Mus musculus; assay: Toxicity in human HT-29 cells xenografted mouse assessed as body weight level at 0.5 mg/kg, iv dosed three times per week to the end of treatment measured on day 3 (reference value: 20.7 +/- 1.2 g); assay type: organism-based; design: dose 0.5 mg/kg, route intravenous; settings: in vivo
[26] = system: Mus musculus; assay: Toxicity in human HT-29 cells xenografted mouse assessed as body weight level at 0.5 mg/kg, iv dosed three times per week to the end of treatment measured on day 7 (reference value: 21.7 +/- 1 g); assay type: organism-based; design: dose 0.5 mg/kg, route intravenous; settings: in vivo
[27] = system: Mus musculus; assay: Toxicity in human HT-29 cells xenografted mouse assessed as body weight level at 0.5 mg/kg, iv dosed three times per week to the end of treatment measured on day 10 (reference value: 22.4 +/- 1.3 g); assay type: organism-based; design: dose 0.5 mg/kg, route intravenous; settings: in vivo
[28] = system: Mus musculus; assay: Toxicity in human HT-29 cells xenografted mouse assessed as body weight level at 0.5 mg/kg, iv dosed three times per week to the end of treatment measured on day 14 (reference value: 22.7 +/- 1.5 g); assay type: organism-based; design: dose 0.5 mg/kg, route intravenous; settings: in vivo
[29] = system: Mus musculus; assay: Toxicity in human HT-29 cells xenografted mouse assessed as body weight level at 0.5 mg/kg, iv dosed three times per week to the end of treatment measured on day 17 (reference value: 22 +/- 1.7 g); assay type: organism-based; design: dose 0.5 mg/kg, route intravenous; settings: in vivo
[30] = system: Mus musculus; assay: Toxicity in human HT-29 cells xenografted mouse assessed as body weight level at 0.5 mg/kg, iv dosed three times per week to the end of treatment measured on day 21 (reference value: 21.2 +/- 1.6 g); assay type: organism-based; design: dose 0.5 mg/kg, route intravenous; settings: in vivo
[31] = Cytotoxicity against human HCT116 cells after 72 hrs by sulforhodamine B assay; assay type: functional, cell-based, HCT-116; settings: hct-116
[32] = system: HT-29; assay: Cytotoxicity against human HT-29 cells after 72 hrs by sulforhodamine B assay; assay type: functional, cell-based; settings: ht-29
[33] = system: HCT-116; assay: Potency index, ratio of IC50 for SN38 to IC50 for compound against human HCT116 cells after 72 hrs by sulforhodamine B assay; assay type: functional
[34] = Stability in pH 7.4 PBS buffer assessed as formation of carboxylate forms at 1 uM incubated at 37 degC by HPLC method; assay type: physicochemical; settings: pH 7.4, 1 µM
[35] = Stability in human plasma assessed as lactone moieties level at 1 uM incubated at 37 degC after 3 hrs by HPLC method; assay type: ADME, cell-free; settings: read-out: Stability
[36] = Solubility in water; assay type: physicochemical
[37] = system: Mus musculus; assay: Toxicity in human HT-29 cells xenografted mouse assessed as lethal toxicity at 3 mg/kg, iv dosed three times per week to the end of treatment; assay type: organism-based; design: dose 3 mg/kg, route intravenous; settings: in vivo
[38] = system: Mus musculus; assay: Toxicity in human HT-29 cells xenografted mouse assessed as lethal toxicity at 0.5 mg/kg, iv dosed three times per week to the end of treatment; assay type: organism-based; design: dose 0.5 mg/kg, route intravenous; settings: in vivo
[39] = system: Mus musculus; assay: Toxicity in human HT-29 cells xenografted mouse assessed as body weight change at 3 mg/kg, iv dosed three times per week to the end of treatment (reference value: 12.7%); assay type: organism-based; design: dose 3 mg/kg, route intravenous; settings: in vivo
[40] = system: HT-29; assay: Antitumor activity against human HT-29 cells xenografted in mouse assessed as relative tumor increment rate at 3 mg/kg, iv dosed three times per week to the end of treatment relative to untreated control; assay type: functional
[41] = system: HT-29; assay: Antitumor activity against human HT-29 cells xenografted in mouse assessed as relative tumor increment rate at 0.5 mg/kg, iv dosed three times per week to the end of treatment relative to untreated control; assay type: functional
[42] = system: Mus musculus; assay: Toxicity in human HT-29 cells xenografted mouse assessed as induction of overt toxic symptoms at 0.5 mg/kg, iv dosed three times per week to the end of treatment; assay type: organism-based; design: dose 0.5 mg/kg, route intravenous; settings: in vivo
[43] = system: Mus musculus; assay: Toxicity in human HT-29 cells xenografted mouse assessed as induction of overt toxic symptoms at 3 mg/kg, iv dosed three times per week to the end of treatment; assay type: organism-based; design: dose 3 mg/kg, route intravenous; settings: in vivo
[44] = system: Mus musculus; assay: Toxicity in human HT-29 cells xenografted mouse assessed as induction of anaphylactic reaction at 0.5 mg/kg, iv dosed three times per week to the end of treatment; assay type: organism-based; design: dose 0.5 mg/kg, route intravenous; settings: in vivo
[45] = system: Mus musculus; assay: Toxicity in human HT-29 cells xenografted mouse assessed as induction of anaphylactic reaction at 3 mg/kg, iv dosed three times per week to the end of treatment; assay type: organism-based; design: dose 3 mg/kg, route intravenous; settings: in vivo
[46] = system: HT-29; assay: Antitumor activity against human HT-29 cells xenografted in mouse assessed as tumor volume at 3 mg/kg, iv dosed three times per week to the end of treatment measured on day 3 (reference value: 168 +/- 46 mm3); assay type: functional
[47] = system: HT-29; assay: Antitumor activity against human HT-29 cells xenografted in mouse assessed as tumor volume at 3 mg/kg, iv dosed three times per week to the end of treatment measured on day 7 (reference value: 229 +/- 57 mm3); assay type: functional

CCc1c2c(nc3ccc(OC(=O)N4CCC(N5CCCCC5)CC4)cc13)-c1cc3c(c(=O)n1C2)COC(=O)[C@]3(O)CC [IRINOTECAN]
Activity [1]: 19.9 g | Activity [2]: 20.8 g | Activity [3]: 21.6 g | Activity [4]: 22.4 g | Activity [5]: 22.3 g | Activity [6]: 21.3 g | Activity [7]: Non-toxic | T/C [8]: 42.22%

CC[C@]1(O)c2cc3n(c(=O)c2COC(=O)[C@H]1OC)Cc1c-3nc2cc3c(cc2c1-c1ccncc1)OCO3.Cl
Activity [9]: 52 mm3 | Activity [10]: 51 mm3 | Activity [11]: 15 mm3 | Activity [12]: 0 mm3 | Activity [13]: 156 mm3 | Activity [14]: 187 mm3 | Activity [15]: 262 mm3 | Activity [16]: 327 mm3 | Activity [17]: 380 mm3 | Activity [18]: 550 mm3 | Activity [19]: 19.8 g | Activity [20]: 18.6 g | Activity [21]: 16.8 g | Activity [22]: 18.1 g | Activity [23]: 18.4 g | Activity [24]: 18.7 g | Activity [25]: 20.5 g | Activity [26]: 21.4 g | Activity [27]: 22 g | Activity [28]: 22.5 g | Activity [29]: 22.2 g | Activity [30]: 21.3 g | IC50 [31]: 0.628 nM | IC50 [32]: 3.41 nM | Ratio IC50 [33]: 20 | Stability [34]: Stable | remaining at 3 h, 1 µM [35]: 55% | solubility [36]: 1200 µg/mL | Activity [37]: Non-toxic | Activity [38]: Non-toxic | Activity [39]: -2.6% | T/C [40]: 0% | T/C [41]: 42.84% | Activity [42]: Non-toxic | Activity [43]: Non-toxic | Activity [44]: Non-toxic | Activity [45]: Non-toxic | Activity [46]: 124 mm3 | Activity [47]: 93 mm3
